Laboratory results published in ChEMBL document CHEMBL3124929, “Novel S1P(1) receptor agonists--part 3: from thiophenes to pyridines” (J Med Chem, 2014).

What was measured:
[1] = Cmax in Wistar rat at 10 mg/kg, po by LC-MS/MS analysis; type: ADME, organism-based; parameters: dose 10 mg/kg, route oral; details: in vivo
[2] = AUC (0 to infinity) in Wistar rat at 0.5 mg/kg, iv by LC-MS/MS analysis; type: ADME, organism-based; parameters: time infinity, dose 0.5 mg/kg, route intravenous; details: plasma
[3] = Oral bioavailability in Wistar rat at 10 mg/kg by LC-MS/MS analysis; type: ADME, organism-based; details: in vivo
[4] = AUC (0 to 24 hrs) in Wistar rat at 10 mg/kg, po by LC-MS/MS analysis; type: ADME, organism-based; parameters: time < 24 hr, dose 10 mg/kg, route oral; details: plasma
[5] = Tmax in Wistar rat at 10 mg/kg, po by LC-MS/MS analysis; type: ADME, organism-based; parameters: dose 10 mg/kg, route oral; details: in vivo
[6] = Volume of distribution at steady state in Wistar rat at 0.5 mg/kg, iv by LC-MS/MS analysis; type: ADME, organism-based; parameters: dose 0.5 mg/kg, route intravenous; details: in vivo, read-out: Vdss
[7] = Drug uptake in Wistar rat brain at 10 mg/kg, po after 6 hrs; type: ADME, organism-based; parameters: dose 10 mg/kg, route oral; details: read-out: Drug uptake
[8] = Plasma concentration in Wistar rat at 10 mg/kg, po after 24 hrs; type: ADME, organism-based; parameters: dose 10 mg/kg, route oral
[9] = Plasma concentration in Wistar rat at 10 mg/kg, po after 2 hrs; type: ADME, organism-based; parameters: dose 10 mg/kg, route oral
[10] = Drug uptake in Wistar rat brain at 10 mg/kg, po after 24 hrs; type: ADME, organism-based; parameters: dose 10 mg/kg, route oral; details: read-out: Drug uptake
[11] = Drug uptake in Wistar rat brain at 10 mg/kg, po after 2 hrs; type: ADME, organism-based; parameters: dose 10 mg/kg, route oral; details: read-out: Drug uptake
[12] = Plasma concentration in Wistar rat at 10 mg/kg, po after 6 hrs; type: ADME, organism-based; parameters: dose 10 mg/kg, route oral
[13] = AUC (0 to 24 hrs) in Wistar rat at 1 mg/kg, po by LC-MS/MS analysis; type: ADME, organism-based; parameters: time < 24 hr, dose 1 mg/kg, route oral; details: plasma
[14] = Tmax in Wistar rat at 1 mg/kg, po by LC-MS/MS analysis; type: ADME, organism-based; parameters: dose 1 mg/kg, route oral; details: in vivo
[15] = Oral bioavailability in Wistar rat at 1 mg/kg by LC-MS/MS analysis; type: ADME, organism-based; details: in vivo
[16] = Cmax in Wistar rat at 1 mg/kg, po by LC-MS/MS analysis; type: ADME, organism-based; parameters: dose 1 mg/kg, route oral; details: in vivo
[17] = AUC (0 to 24 hrs) in cynomolgus monkey at 1 mg/kg, po by LC-MS/MS analysis; type: ADME, organism-based, Macaca fascicularis; parameters: time < 24 hr, dose 1 mg/kg, route oral; details: plasma
[18] = AUC (0 to infinity) in cynomolgus monkey at 1 mg/kg, iv by LC-MS/MS analysis; type: ADME, organism-based, Macaca fascicularis; parameters: time infinity, dose 1 mg/kg, route intravenous; details: plasma
[19] = Tmax in cynomolgus monkey at 1 mg/kg, po by LC-MS/MS analysis; type: ADME, organism-based, Macaca fascicularis; parameters: dose 1 mg/kg, route oral; details: in vivo
[20] = AUC (0 to 32 hrs) in Wistar rat at 10 mg/kg, po by LC-MS/MS analysis; type: ADME, organism-based; parameters: time < 32 hr, dose 10 mg/kg, route oral; details: plasma
[21] = Volume of distribution at steady state in cynomolgus monkey at 1 mg/kg, iv by LC-MS/MS analysis; type: ADME, organism-based, Macaca fascicularis; parameters: dose 1 mg/kg, route intravenous; details: in vivo, read-out: Vdss
[22] = AUC (0 to infinity) in Wistar rat at 1 mg/kg, iv by LC-MS/MS analysis; type: ADME, organism-based; parameters: time infinity, dose 1 mg/kg, route intravenous; details: plasma
[23] = Volume of distribution at steady state in Wistar rat at 1 mg/kg, iv by LC-MS/MS analysis; type: ADME, organism-based; parameters: dose 1 mg/kg, route intravenous; details: in vivo, read-out: Vdss
[24] = Oral bioavailability in cynomolgus monkey at 1 mg/kg by LC-MS/MS analysis; type: ADME, organism-based, Macaca fascicularis; details: in vivo
[25] = AUC (0 to infinity) in Beagle dog at 1 mg/kg, iv by LC-MS/MS analysis; type: ADME, organism-based, Canis lupus familiaris; parameters: time infinity, dose 1 mg/kg, route intravenous; details: plasma
[26] = Cmax in cynomolgus monkey at 1 mg/kg, po by LC-MS/MS analysis; type: ADME, organism-based, Macaca fascicularis; parameters: dose 1 mg/kg, route oral; details: in vivo
[27] = Tmax in Wistar rat plasma at 10 mg/kg, po; type: ADME, organism-based; parameters: dose 10 mg/kg, route oral
[28] = Volume of distribution at steady state in Beagle dog at 1 mg/kg, iv by LC-MS/MS analysis; type: ADME, organism-based, Canis lupus familiaris; parameters: dose 1 mg/kg, route intravenous; details: in vivo, read-out: Vdss
[29] = Oral bioavailability in Beagle dog at 3 mg/kg by LC-MS/MS analysis; type: ADME, organism-based, Canis lupus familiaris; details: in vivo
[30] = AUC (0 to 24 hrs) in Beagle dog at 3 mg/kg, po by LC-MS/MS analysis; type: ADME, organism-based, Canis lupus familiaris; parameters: time < 24 hr, dose 3 mg/kg, route oral; details: plasma
[31] = Tmax in Beagle dog at 3 mg/kg, po by LC-MS/MS analysis; type: ADME, organism-based, Canis lupus familiaris; parameters: dose 3 mg/kg, route oral; details: in vivo
[32] = Cmax in Beagle dog at 3 mg/kg, po by LC-MS/MS analysis; type: ADME, organism-based, Canis lupus familiaris; parameters: dose 3 mg/kg, route oral; details: in vivo
[33] = Tmax in Wistar rat brain at 10 mg/kg, po; type: ADME, organism-based; parameters: dose 10 mg/kg, route oral
[34] = Plasma concentration in Wistar rat at 10 mg/kg, po after 3 hrs; type: ADME, organism-based; parameters: dose 10 mg/kg, route oral

Row | concentration at 6 h [7] | concentration at 24 h [8] | concentration at 2 h [9] | concentration at 24 h [10] | concentration at 2 h [11] | concentration at 6 h [12] | SMILES | other results
1 | – | – | – | – | – | – | CCc1cc(-c2noc(-c3cc(C)nc(C(CC)CC)c3)n2)cc(C)c1OC[C@@H](O)CNC(=O)CO | Cmax [1]: 804 ng/mL; AUC(0-inf) [2]: 69.9 ng·h/mL; bioavailability [3]: 126%; AUC(0-t) at 24 h [4]: 1760 ng·h/mL; Tmax [5]: 0.5 h; Vd [6]: 3.4 L/kg
2 | 271 ng/mL | 22 ng/mL | 608 ng/mL | 34 ng/mL | 435 ng/mL | 254 ng/mL | CCc1cc(-c2noc(-c3cc(C)nc(N(CC)CC)c3)n2)cc(C)c1OC[C@@H](O)CO | –
3 | 215 ng/mL | 4 ng/mL | 820 ng/mL | 2 ng/mL | 600 ng/mL | 315 ng/mL | CCc1cc(-c2nnc(-c3cc(C)nc(N(CC)CC)c3)o2)cc(C)c1OC[C@@H](O)CO | –
4 | – | – | – | – | – | – | CCc1cc(-c2noc(-c3cc(C)nc(C4CCCC4)c3)n2)cc(C)c1OC[C@@H](O)CNC(=O)CO | AUC(0-inf) [2]: 566 ng·h/mL; AUC(0-t) at 24 h [13]: 436 ng·h/mL; Tmax [14]: 3 h; bioavailability [15]: 39%; Cmax [16]: 49 ng/mL; Vd [6]: 7.3 L/kg
5 | 653 ng/mL | 412 ng/mL | 2170 ng/mL | 487 ng/mL | 269 ng/mL | 1780 ng/mL | CCc1cc(-c2noc(-c3cc(C)nc(N(CC)CC)c3)n2)cc(C)c1OC[C@@H](O)CNC(=O)CO | AUC(0-t) at 24 h [17]: 866 ng·h/mL; AUC(0-inf) [18]: 5450 ng·h/mL; Tmax [19]: 2 h; Cmax [1]: 1090 ng/mL; AUC(0-t) at 32 h [20]: 16500 ng·h/mL; Vd [21]: 1.1 L/kg; AUC(0-inf) [22]: 3200 ng·h/mL; Vd [23]: 3.5 L/kg; bioavailability [24]: 16%; bioavailability [3]: 52%; AUC(0-inf) [25]: 3350 ng·h/mL; Tmax [5]: 2 h; Cmax [26]: 97 ng/mL; Tmax [27]: 2 h; Vd [28]: 1.2 L/kg; bioavailability [29]: 32%; AUC(0-t) at 24 h [30]: 3250 ng·h/mL; Tmax [31]: 1 h; Cmax [32]: 546 ng/mL; Tmax [33]: 6 h
6 | 369 ng/mL | 230 ng/mL | 875 ng/mL | 301 ng/mL | 140 ng/mL | 918 ng/mL | CCc1cc(-c2nc(-c3cc(C)nc(N(CC)CC)c3)no2)cc(C)c1OC[C@@H](O)CNC(=O)CO | –
7 | 52 ng/mL | 8 ng/mL | 815 ng/mL | 3 ng/mL | 46 ng/mL | 510 ng/mL | CCc1cc(-c2nnc(-c3cc(C)nc(N(CC)CC)c3)o2)cc(C)c1OC[C@@H](O)CNC(=O)CO | –
8 | – | 9 nM | – | – | – | 1070 nM | CCc1cc(-c2noc(-c3cc(C4CCCC4)cc(C)n3)n2)cc(C)c1OC[C@@H](O)CNC(=O)CO | concentration at 3 h [34]: 1.89 µM
9 | – | 800 nM | – | – | – | 3690 nM | CCc1cc(-c2noc(-c3cc(C)c(C4CCCC4)cn3)n2)cc(C)c1OC[C@@H](O)CNC(=O)CO | concentration at 3 h [34]: 4.91 µM
